The experiment concerns the target HLA A*3001 (Homo sapiens, UniProt P04439, D140H/D185E/E176W/F33S/G80R/H175R/K168Q/R138E/R41S). In words: biochemical. Format: binding.

Results on 20 compounds are retold here after paper PMC2248166, “Quantitative peptide binding motifs for 19 human and mouse MHC class I molecules derived using positional scanning combinatorial peptide libraries” (Immunome Research, 2008).

Where a SMILES comes first, the peptide text is derived from it.

HLA A*3001, sequence (P04439 25-365 limits assumed, stated change not applied): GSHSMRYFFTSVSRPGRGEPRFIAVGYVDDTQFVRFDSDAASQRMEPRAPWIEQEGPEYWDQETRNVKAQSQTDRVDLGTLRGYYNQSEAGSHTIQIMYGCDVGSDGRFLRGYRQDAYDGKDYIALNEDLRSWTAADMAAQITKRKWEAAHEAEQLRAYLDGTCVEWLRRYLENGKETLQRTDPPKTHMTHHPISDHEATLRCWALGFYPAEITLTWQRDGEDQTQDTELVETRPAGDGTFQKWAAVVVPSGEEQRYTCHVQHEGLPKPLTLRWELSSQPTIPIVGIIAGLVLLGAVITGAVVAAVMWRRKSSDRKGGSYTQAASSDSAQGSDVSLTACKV

In turn, `CC(C)C[C@H](NC(=O)[C@H](CCC(N)=O)NC(=O)[C@H](Cc1c[nH]cn1)NC(=O)[C@H](CCCCN)NC(=O)[C@H](CO)NC(=O)[C@H](CO)NC(=O)[C@@H](NC(=O)[C@@H](N)CCCCN)C(C)C)C(=O)N[C@H](C(=O)O)C(C)C` [3102.0182] (H-KVSSKHQLV-OH) had a 50% inhibitory concentration (IC50) of 14 nM. The figure for `CC(C)C[C@H](N)C(=O)N[C@H](C(=O)N[C@@H](CCCCN)C(=O)N[C@@H](CO)C(=O)N[C@@H](CO)C(=O)N[C@@H](Cc1ccccc1)C(=O)N[C@H](C(=O)N[C@@H](CCCCN)C(=O)N[C@@H](CCCCN)C(=O)O)C(C)C)C(C)C` [3102.0185] (H-LVKSSFVKK-OH) is 5.6 nM; for `CC[C@H](C)[C@H](NC(=O)[C@@H]1CCCN1C(=O)[C@H](C)NC(=O)[C@H](CO)NC(=O)[C@H](C)NC(=O)[C@@H]1CCCN1C(=O)[C@H](CCCCN)NC(=O)[C@@H](NC(=O)[C@@H](N)CCCNC(=N)N)[C@@H](C)O)C(=O)O` [3102.0187] (H-RTKPASAPI-OH) it is 0.11 nM.

The compound `CC[C@H](C)[C@H](NC(=O)[C@H](Cc1ccccc1)NC(=O)[C@H](CC(C)C)NC(=O)[C@H](CC(=O)O)NC(=O)[C@H](CCCNC(=N)N)NC(=O)[C@@H](NC(=O)[C@@H](N)CCCNC(=N)N)[C@@H](C)O)C(=O)N[C@@H](C)C(=O)N[C@@H](CC(C)C)C(=O)O` [3102.0188] (H-RTRDLFIAL-OH) displayed a half-inhibitory concentration (IC50) of 0.11 nM. Regarding `CC[C@H](C)[C@H](NC(=O)[C@@H](NC(=O)[C@@H](N)CCCCN)[C@@H](C)O)C(=O)N[C@@H](Cc1c[nH]c2ccccc12)C(=O)N[C@@H](CCC(=O)O)C(=O)N[C@H](C(=O)N1CCC[C@H]1C(=O)N[C@@H](CCC(N)=O)C(=O)N[C@@H](CCCCN)C(=O)O)[C@@H](C)CC` [3102.0190] (H-KTIWEIPQK-OH), it took 12 nM to reach half-maximal inhibition (IC50). This IC50 lies about 110-fold higher than the previous one. `CC[C@H](C)[C@H](NC(=O)[C@@H](NC(=O)[C@@H](N)CCCCN)C(C)C)C(=O)N[C@H](C(=O)N[C@@H](CCCNC(=N)N)C(=O)N[C@@H](CC(N)=O)C(=O)N[C@@H](CC(C)C)C(=O)N[C@@H](CC(N)=O)C(=O)N[C@@H](CCCCN)C(=O)O)C(C)C` [3102.0191] (H-KVIVRNLNK-OH) showed a half-inhibitory concentration (IC50) of 1.4 nM. Compound `CC(C)C[C@H](NC(=O)[C@H](Cc1c[nH]c2ccccc12)NC(=O)[C@H](CCCCN)NC(=O)[C@@H](NC(=O)[C@@H](N)CCCCN)C(C)C)C(=O)N[C@@H](CCC(N)=O)C(=O)N[C@@H](CC(N)=O)C(=O)N[C@@H](CO)C(=O)N[C@H](C(=O)O)C(C)C` [3102.0194] (H-KVKWLQNSV-OH) returned a 50% inhibitory concentration (IC50) of 0.5 nM. `CSCC[C@H](NC(=O)[C@@H]1CCCN1C(=O)[C@H](CC(C)C)NC(=O)[C@H](CO)NC(=O)[C@H](CCC(=O)O)NC(=O)[C@H](CCCCN)NC(=O)[C@H](CC(N)=O)NC(=O)[C@@H](N)CCCCN)C(=O)N[C@@H](CC(C)C)C(=O)O` [3102.0195] (H-KNKESLPML-OH) returned a 50% inhibitory concentration (IC50) of 18 nM.

With `CC[C@H](C)[C@H](NC(=O)[C@H](CO)NC(=O)[C@@H](NC(=O)[C@H](CCCCN)NC(=O)[C@H](CCCCN)NC(=O)[C@H](CCC(N)=O)NC(=O)[C@@H](N)CCCNC(=N)N)[C@@H](C)CC)C(=O)N[C@@H](CC(C)C)C(=O)N[C@H](C(=O)O)C(C)C` [3102.0196] (H-RQKKISILV-OH), half-maximal inhibition (IC50) was put at 0.36 nM. Compared with the last compound, the IC50 is about 50-fold lower. With `CC(C)[C@H](NC(=O)[C@@H](N)CCCNC(=N)N)C(=O)N[C@@H](Cc1c[nH]cn1)C(=O)N[C@@H](CC(=O)O)C(=O)N[C@H](C(=O)N[C@@H](CC(N)=O)C(=O)N[C@@H](C)C(=O)N[C@H](C(=O)N[C@@H](CCCCN)C(=O)O)[C@@H](C)O)[C@@H](C)O` [3102.0197] (H-RVHDTNATK-OH) the figure was 7.7 nM; with `CC(C)C[C@H](NC(=O)[C@H](Cc1ccccc1)NC(=O)[C@@H](NC(=O)[C@H](Cc1ccc(O)cc1)NC(=O)[C@H](CCCNC(=N)N)NC(=O)[C@@H](NC(=O)[C@@H](N)CC(N)=O)C(C)C)C(C)C)C(=O)N[C@@H](Cc1ccc(O)cc1)C(=O)N[C@@H](CCCCN)C(=O)O` [3102.0198] (H-NVRYVFLYK-OH), 9.9 nM; with `CC[C@H](C)[C@H](N)C(=O)N[C@@H](CO)C(=O)N[C@@H](CCCNC(=N)N)C(=O)N[C@@H](CC(N)=O)C(=O)N[C@@H](CCCCN)C(=O)N[C@@H](CC(N)=O)C(=O)N[C@H](C(=O)N[C@@H](Cc1ccccc1)C(=O)N[C@H](C(=O)O)C(C)C)[C@@H](C)CC` [3102.0199] (H-ISRNKNIFV-OH), 7.3 nM.

In turn, `CC[C@H](C)[C@H](NC(=O)[C@H](CCCCN)NC(=O)[C@@H](NC(=O)CN)[C@@H](C)O)C(=O)N[C@@H](C)C(=O)N[C@@H](CC(C)C)C(=O)N[C@@H](CC(C)C)C(=O)N[C@@H](CCC(=O)O)C(=O)N[C@@H](CC(C)C)C(=O)O` [3102.0200] (H-GTKIALLEL-OH) yielded an IC50 of 1.3 nM. Against the preceding compound, the IC50 is about 5.6-fold lower. Take `CC[C@H](C)[C@H](NC(=O)[C@H](CCCCN)NC(=O)[C@@H](NC(=O)[C@@H](N)CCCNC(=N)N)[C@@H](C)O)C(=O)N[C@H](C(=O)N[C@@H](CO)C(=O)N[C@@H](CC(C)C)C(=O)N1CCC[C@H]1C(=O)N[C@@H](CC(C)C)C(=O)O)[C@@H](C)O` [3102.0201] (H-RTKITSLPL-OH): the IC50 amounted to 0.087 nM. This IC50 is about 15-fold lower than that of the compound before. With `CC[C@H](C)[C@H](NC(=O)[C@H](C)NC(=O)[C@@H](NC(=O)[C@@H](NC(=O)[C@H](C)NC(=O)[C@H](Cc1ccccc1)NC(=O)[C@@H](NC(=O)[C@@H](N)CCCCN)[C@@H](C)O)[C@@H](C)CC)[C@@H](C)CC)C(=O)N[C@H](C(=O)O)C(C)C` [3102.0202] (H-KTFAIIAIV-OH) the figure was 24 nM. Compound `CSCC[C@H](N)C(=O)N[C@@H](CO)C(=O)N[C@@H](CCCNC(=N)N)C(=O)N[C@@H](CCCNC(=N)N)C(=O)N[C@@H](Cc1ccc(O)cc1)C(=O)N[C@@H](CO)C(=O)N[C@@H](CCCNC(=N)N)C(=O)N[C@@H](CCC(=O)O)C(=O)N[C@@H](CCCCN)C(=O)O` [3102.0203] (H-MSRRYSREK-OH) had a 50% inhibitory concentration (IC50) of 1.3 nM. Against the preceding compound, the IC50 is about 18-fold lower. For `CC[C@H](C)[C@H](NC(=O)[C@H](C)NC(=O)[C@@H](N)CCCCN)C(=O)N[C@@H](CO)C(=O)N[C@@H](CC(N)=O)C(=O)N[C@@H](C)C(=O)N[C@@H](CCCNC(=N)N)C(=O)N[C@@H](CC(C)C)C(=O)N[C@@H](CCCCN)C(=O)O` [3102.0204] (H-KAISNARLK-OH), the IC50 was determined as 26 nM. This IC50 lies about 20-fold higher than the previous one. `CC[C@H](C)[C@H](NC(=O)[C@H](CCCNC(=N)N)NC(=O)[C@@H](NC(=O)[C@H](CC(=O)O)NC(=O)[C@H](CCCCN)NC(=O)[C@@H](NC(=O)[C@@H](N)CCCNC(=N)N)[C@@H](C)O)[C@@H](C)O)C(=O)N[C@@H](CCCCN)C(=O)N[C@@H](C)C(=O)O` [3102.0205] (H-RTKDTRIKA-OH) yielded an IC50 of 0.2 nM.

Turning to `CC[C@H](C)[C@H](NC(=O)[C@@H](N)CCCCN)C(=O)N[C@@H](CCCNC(=N)N)C(=O)N1CCC[C@H]1C(=O)N[C@H](C(=O)N[C@@H](CCCNC(=N)N)C(=O)N[C@@H](CO)C(=O)N[C@H](C(=O)N[C@@H](Cc1ccc(O)cc1)C(=O)O)C(C)C)[C@@H](C)O` [3102.0206] (H-KIRPTRSVY-OH), 7.2 nM corresponded to half-maximal inhibition (IC50).

Compound `CC[C@H](C)[C@H](NC(=O)[C@H](Cc1ccc(O)cc1)NC(=O)[C@H](C)NC(=O)[C@H](C)NC(=O)[C@H](Cc1c[nH]cn1)NC(=O)[C@H](CO)NC(=O)[C@H](CCCCN)NC(=O)[C@H](CO)NC(=O)[C@@H](N)CCSC)C(=O)O` [3102.0207] (H-MSKSHAAYI-OH) displayed an IC50 of 0.23 nM.
